Tests used:
Type in all cases: cell-based
[1] = tested on: SKBr3 and MCF-7 cell lines; assay: Anti-proliferative activity against both breast cancer cell lines (results in words); settings: SKBr3 and MCF-7, Tables 1-5
Procedure: (§1) Cells were maintained in a 1:1 mixture of Advanced DMEM/F12 (Gibco) supplemented with non-essential amino acids, L-glutamine (2 mM), streptomycin (500 μg/mL), penicillin (100 units/mL), and 10% FBS. Cells were grown to confluence in a humidified atmosphere (37° C., 5% CO2), seeded (2000/well, 100 μL) in 96-well plates, and allowed to attach overnight. Compound at varying concentrations in DMSO (1% DMSO final concentration) was added, and cells were returned to the incubator for 72 h. At 72 h, the number of viable cells was determined using an MTS/PMS cell proliferation kit (Promega) per the manufacturer's instructions. Cells incubated in 1% DMSO were used at 100% proliferation, and values were adjusted accordingly. IC50 values were calculated from separate experiments performed in triplicate using GraphPad Prism.
The anti-proliferative activity of these compounds is evaluated against two breast cancer cell lines, SKBr3 (estrogen receptor negative, Her2 over-expressing breast cancer cells) and MCF-7 (estrogen receptor positive breast cancer cells).

[2] = tested on: A-549; assay: Anti-proliferation assay, A-549; settings: Homo sapiens, A549; Table 6, substituted phenyl ureas
Procedure: as §1

[3] = tested on: JMAR; assay: Anti-proliferation assay, JMAR; settings: JMAR; Table 6, substituted phenyl ureas; HSNCC
Procedure: as §1

[4] = tested on: MRC5; assay: Anti-proliferation assay, MRC5 (normal); settings: Homo sapiens, MRC5, Table 6, substituted phenyl ureas
Procedure: as §1

[5] = tested on: MCF-7 (estrogen receptor positive breast cancer cells); assay: Anti-proliferation assay (MTS/PMS, 72 h), MCF-7; settings: Homo sapiens, MCF7; Table 6, substituted phenyl ureas; Breast Cancer; read-out: IC50 MCF-3
[6] = tested on: DRO81-1; assay: Anti-proliferation assay, DRO81-1; settings: Table 6, substituted phenyl ureas; Thyroid
Procedure: as §1

[7] = tested on: HMLE; assay: Anti-proliferation assay, HMLE (normal); settings: HMLE, Table 6, substituted phenyl ureas
Procedure: as §1

[8] = tested on: HCT-116; assay: Anti-proliferation assay, HCT-116; settings: Homo sapiens, HCT-116; Table 6, substituted phenyl ureas
Procedure: as §1

[9] = tested on: MDA1986; assay: Anti-proliferation assay, MDA1986; settings: MDA1986; Table 6, substituted phenyl ureas; HSNCC
Procedure: as §1

[10] = tested on: PC-3; assay: Anti-proliferation assay, PC-3; settings: Homo sapiens, PC-3; Table 6, substituted phenyl ureas; Prostate Cancer
Procedure: as §1

[11] = tested on: MDAMB231; assay: Anti-proliferation assay, MDAMB231; settings: Homo sapiens, MDA-MB-231; Table 6, substituted phenyl ureas; Tri-Neg
Procedure: as §1

[12] = tested on: SKBr3 (estrogen receptor negative, Her2 over-expressing breast cancer cells); assay: Anti-proliferation assay (MTS/PMS, 72 h), SKBr3; settings: Homo sapiens, SK-BR-3; Table 6, substituted phenyl ureas; Breast Cancer; read-out: IC50 SKBr3

Structure (SMILES)	IC50 [2]	IC50 [5]	IC50 [8]	IC50 [10]	IC50 [11]	IC50 [12]	anti-proliferative activity (in words) [1]	IC50 [3]	IC50 [4]	IC50 [6]	IC50 [7]	IC50 [9]
CC(C)=CCc1cc(C(=O)Nc2cc3ccc(OCCCN4CCCC4)c(C)c3oc2=O)ccc1O [Compound 66, 4-hydroxy-N-(8-methyl-2-oxo-7-(3-(pyrrolidin-1-yl)propoxy)-2H-chromen-3-yl)-3-(3-methylbut-2-en-1-yl)benzamide]							restores activity					
CC(C)=CCc1cc(C(=O)Nc2cc3ccc(OCCCN4CCOCC4)c(C)c3oc2=O)ccc1O [Compound 64, 4-hydroxy-N-(8-methyl-7-(3-morpholinopropoxy)-2-oxo-2H-chromen-3-yl)-3-(3-methylbut-2-en-1-yl)benzamide]							inactive at the highest concentrations tested					
CC(C)=CCc1cc(C(=O)Nc2cc3ccc(OCCCN4CCN(C)CC4)c(C)c3oc2=O)ccc1O [Compound 62, 4-hydroxy-N-(8-methyl-7-(3-(4-methylpiperazin-1-yl)propoxy)-2-oxo-2H-chromen-3-yl)-3-(3-methylbut-2-en-1-yl)benzamide]							maintain activity comparable to the N-methylpiperidine derivative					
Cc1ccc(NC(=O)Nc2cc3ccc(OC4CCN(C)CC4)c(C)c3oc2=O)cc1C [3,4-dimethyl, 1-(3,4-dimethylphenyl)-3-(8-methyl-7-((1-methylpiperidin-4-yl)oxy)-2-oxo-2H-chromen-3-yl)urea]	0.063 µM	0.33 µM	0.066 µM	1.33 µM	1.9 µM	0.31 µM		1.7 µM	2.7 µM	8.1 µM	0.9 µM	1.3 µM
Cc1ccc(NC(=O)Nc2cc3ccc(OC4CCN(C)CC4)c(C)c3oc2=O)c(C)c1 [2,4-dimethyl, 1-(2,4-dimethylphenyl)-3-(8-methyl-7-((1-methylpiperidin-4-yl)oxy)-2-oxo-2H-chromen-3-yl)urea]	0.43 µM	1.11 µM	0.77 µM	0.27 µM	2.6 µM	3.79 µM		1.1 µM	3.6 µM	2.3 µM	> 25 µM	1.9 µM
Cc1c(OC2CCN(C)CC2)ccc2cc(NC(=O)Nc3cc(Cl)cc(Cl)c3)c(=O)oc12 [3,5-dichloro, 1-(3,5-dichlorophenyl)-3-(8-methyl-7-((1-methylpiperidin-4-yl)oxy)-2-oxo-2H-chromen-3-yl)urea]	0.2 µM	0.49 µM	1.21 µM	0.16 µM	3.6 µM	0.51 µM		6.2 µM	> 25 µM	0.77 µM	> 25 µM	7.5 µM
COc1ccc(C(C)(C)C)cc1NC(=O)Nc1cc2ccc(OC3CCN(C)CC3)c(C)c2oc1=O [Compound 2-OMe-5-t-Bu, 1-(5-(tert-butyl)-2-methoxyphenyl)-3-(8-methyl-7-((1-methylpiperidin-4-yl)oxy)-2-oxo-2H-chromen-3-yl)urea]	0.84 µM	1.53 µM	1.24 µM	3.82 µM	0.91 µM	3.87 µM		3.8 µM	2.65 µM	6.1 µM	6.1 µM	0.09 µM

The next lines start with results.

IC50 [2]	IC50 [5]	IC50 [8]	IC50 [10]	IC50 [11]	IC50 [12]	Structure (SMILES)	anti-proliferative activity (in words) [1]	IC50 [3]	IC50 [4]	IC50 [6]	IC50 [7]	IC50 [9]
1.06 µM	0.96 µM	0.061 µM	3.32 µM	0.05 µM	0.48 µM	Cc1c(OC2CCN(C)CC2)ccc2cc(NC(=O)Nc3ccc(F)cc3)c(=O)oc12 [p-F, 1-(4-fluorophenyl)-3-(8-methyl-7-((1-methylpiperidin-4-yl)oxy)-2-oxo-2H-chromen-3-yl)urea]		8.6 µM	> 25 µM	19.9 µM	> 25 µM	0.01 µM
0.16 µM	0.36 µM	0.42 µM	2.3 µM	> 25 µM	0.17 µM	Cc1c(OC2CCN(C)CC2)ccc2cc(NC(=O)Nc3ccc(Cl)cc3)c(=O)oc12 [p-Cl, 1-(4-chlorophenyl)-3-(8-methyl-7-((1-methylpiperidin-4-yl)oxy)-2-oxo-2H-chromen-3-yl)urea]		6.1 µM	> 25 µM	15.8 µM	> 25 µM	> 25 µM
0.95 µM	4.24 µM	2.83 µM	1.06 µM	2.1 µM	0.58 µM	Cc1c(OC2CCN(C)CC2)ccc2cc(NC(=O)Nc3ccc([N+](=O)[O-])cc3)c(=O)oc12 [p-NO2, 1-(8-methyl-7-((1-methylpiperidin-4-yl)oxy)-2-oxo-2H-chromen-3-yl)-3-(4-nitrophenyl)urea]		7.3 µM	> 25 µM	11.5 µM	> 25 µM	6.6 µM
0.11 µM	1.04 µM	0.24 µM	0.18 µM	2.6 µM	0.65 µM	Cc1c(OC2CCN(C)CC2)ccc2cc(NC(=O)Nc3ccc(Br)cc3)c(=O)oc12 [p-Br, 1-(4-bromophenyl)-3-(8-methyl-7-((1-methylpiperidin-4-yl)oxy)-2-oxo-2H-chromen-3-yl)urea]		3.6 µM	5.5 µM	3.5 µM	6 µM	3.5 µM
0.092 µM	0.96 µM	0.21 µM	0.14 µM	0.5 µM	0.93 µM	Cc1c(OC2CCN(C)CC2)ccc2cc(NC(=O)Nc3ccc(C(C)(C)C)cc3)c(=O)oc12 [p-C(CH3)3, 1-(4-(tert-butyl)phenyl)-3-(8-methyl-7-((1-methylpiperidin-4-yl)oxy)-2-oxo-2H-chromen-3-yl)urea]		0.49 µM	1.8 µM	0.71 µM	14.5 µM	0.57 µM
1.09 µM	0.96 µM	0.25 µM	0.52 µM	2.4 µM	0.86 µM	COc1ccc(NC(=O)Nc2cc3ccc(OC4CCN(C)CC4)c(C)c3oc2=O)cc1 [p-OCH3, 1-(4-methoxyphenyl)-3-(8-methyl-7-((1-methylpiperidin-4-yl)oxy)-2-oxo-2H-chromen-3-yl)urea]		8.4 µM	2.7 µM	29 µM	0.74 µM	2.6 µM
0.063 µM	0.52 µM	0.22 µM	1.82 µM	0.57 µM	0.3 µM	Cc1c(OC2CCN(C)CC2)ccc2cc(NC(=O)Nc3cccc(Cl)c3)c(=O)oc12 [m-Cl, 1-(3-chlorophenyl)-3-(8-methyl-7-((1-methylpiperidin-4-yl)oxy)-2-oxo-2H-chromen-3-yl)urea]		1.7 µM	3.1 µM	3.8 µM	22 µM	1.7 µM
0.16 µM	0.82 µM	1.06 µM	0.13 µM	0.61 µM	0.67 µM	Cc1c(OC2CCN(C)CC2)ccc2cc(NC(=O)Nc3ccc(C(C)C)cc3)c(=O)oc12 [p-CH(CH3)2, 1-(4-isopropylphenyl)-3-(8-methyl-7-((1-methylpiperidin-4-yl)oxy)-2-oxo-2H-chromen-3-yl)urea]		0.88 µM	1.9 µM	0.3 µM	6.4 µM	1.11 µM
